Measurements taken from ChEMBL document CHEMBL1140680 (Bioorg Med Chem Lett, 2007).
Values after ≈ are worked out from the molar mass of the structure shown.

Experiments:
Enterococcus faecalis = assay: Antibacterial activity against Enterococcus faecalis MG2 EF1 by micro-broth method; assay type: functional
Streptococcus pyogenes = assay: Antibacterial activity against Streptococcus pyogenes C203 SP1-1 by micro-broth method; assay type: functional
Moraxella catarrhalis = assay: Antibacterial activity against Moraxella catarrhalis BC-3531 by micro-broth method; assay type: functional
Escherichia coli = assay: Inhibition of transcription and translation activity in Escherichia coli by luciferase reporter assay; assay type: functional, organism-based
Haemophilus influenzae = assay: Antibacterial activity against Heamophilus influenzae HI3542 by microbroth method; assay type: functional
Staphylococcus aureus = assay: Antibacterial activity against Staphylococcus aureus UC76 SA1 by micro-broth method; assay type: functional
Streptococcus pneumoniae = assay: Antibacterial activity against Streptococcus pneumoniae SV1 SP3 by micro-broth method; assay type: functional

| SMILES | MIC (Enterococcus faecalis) | MIC (Streptococcus pyogenes) | MIC (Moraxella catarrhalis) | IC50 (Escherichia coli) | MIC (Haemophilus influenzae) | MIC (Staphylococcus aureus) | MIC (Streptococcus pneumoniae) |
| --- | --- | --- | --- | --- | --- | --- | --- |
| CC(=O)NC[C@H]1CN(c2ccc3c(c2)CCCc2c(-c4cc(C)n(C)n4)n[nH]c2-3)C(=O)O1 | 0.5 µg/mL (≈ 1.15 µM) | 0.25 µg/mL (≈ 0.575 µM) | 4 µg/mL (≈ 9.21 µM) | 1.3 µM | 8 µg/mL (≈ 18.4 µM) | 0.5 µg/mL (≈ 1.15 µM) | 0.25 µg/mL (≈ 0.575 µM) |
| O=C(NC[C@H]1CN(c2ccc3c(c2)CCCc2c(-c4ccno4)n[nH]c2-3)C(=O)O1)C1CC1 | 0.5 µg/mL (≈ 1.15 µM) | 0.25 µg/mL (≈ 0.577 µM) | 1 µg/mL (≈ 2.31 µM) | 1.3 µM | 32 µg/mL (≈ 73.8 µM) | 1 µg/mL (≈ 2.31 µM) | 0.25 µg/mL (≈ 0.577 µM) |
| O=C(NC[C@H]1CN(c2ccc3c(c2)CCCc2c(-c4ccoc4)n[nH]c2-3)C(=O)O1)c1ccoc1 | 1 µg/mL (≈ 2.18 µM) | 1 µg/mL (≈ 2.18 µM) | 4 µg/mL (≈ 8.72 µM) | 3.5 µM | 8 µg/mL (≈ 17.4 µM) | 2 µg/mL (≈ 4.36 µM) | 1 µg/mL (≈ 2.18 µM) |
| CC(=O)NC[C@H]1CN(c2cc(F)c3c(c2)CCCc2c(-c4cc(C)on4)n[nH]c2-3)C(=O)O1 | 0.5 µg/mL (≈ 1.14 µM) | 0.5 µg/mL (≈ 1.14 µM) | 4 µg/mL (≈ 9.1 µM) | 2.1 µM | > 64 µg/mL | 1 µg/mL (≈ 2.28 µM) | 0.5 µg/mL (≈ 1.14 µM) |
| CC(=O)NC[C@H]1CN(c2ccc3c(c2)CCCc2c(-c4ccno4)n[nH]c2-3)C(=O)O1 | 0.125 µg/mL (≈ 0.307 µM) | < 0.06 µg/mL | 1 µg/mL (≈ 2.45 µM) | 0.76 µM | 2 µg/mL (≈ 4.91 µM) | 0.25 µg/mL (≈ 0.614 µM) | < 0.06 µg/mL |
| CCCc1n[nH]c2c1CCCc1cc(N3C[C@H](CNC(C)=O)OC3=O)ccc1-2 | 1 µg/mL (≈ 2.61 µM) | 0.5 µg/mL (≈ 1.31 µM) | 4 µg/mL (≈ 10.5 µM) | 3.1 µM | 16 µg/mL (≈ 41.8 µM) | 2 µg/mL (≈ 5.23 µM) | 0.5 µg/mL (≈ 1.31 µM) |
| CC(=O)NC[C@H]1CN(c2ccc3c(c2)CCCc2c(-c4ccc(C#N)cc4)n[nH]c2-3)C(=O)O1 | 0.25 µg/mL (≈ 0.566 µM) | 0.125 µg/mL (≈ 0.283 µM) | 1 µg/mL (≈ 2.27 µM) | 1.4 µM | 4 µg/mL (≈ 9.06 µM) | 0.5 µg/mL (≈ 1.13 µM) | 0.25 µg/mL (≈ 0.566 µM) |
| CC(=O)NC[C@H]1CN(c2ccc3c(c2)CCCc2c(-c4ccccc4)n[nH]c2-3)C(=O)O1 | 0.5 µg/mL (≈ 1.2 µM) | 0.5 µg/mL (≈ 1.2 µM) | 2 µg/mL (≈ 4.8 µM) | 2 µM | 8 µg/mL (≈ 19.2 µM) | 0.5 µg/mL (≈ 1.2 µM) | 0.5 µg/mL (≈ 1.2 µM) |
| CC(=O)NC[C@H]1CN(c2ccc3c(c2)CCCc2c(-c4cscn4)n[nH]c2-3)C(=O)O1 | 0.5 µg/mL (≈ 1.18 µM) | 1 µg/mL (≈ 2.36 µM) | 1 µg/mL (≈ 2.36 µM) | 1.1 µM | 2 µg/mL (≈ 4.72 µM) | 1 µg/mL (≈ 2.36 µM) | 0.125 µg/mL (≈ 0.295 µM) |
| O=C(NC[C@H]1CN(c2ccc3c(c2)CCCc2c(-c4ccno4)n[nH]c2-3)C(=O)O1)c1cccnc1 | 1 µg/mL (≈ 2.13 µM) | 1 µg/mL (≈ 2.13 µM) | 32 µg/mL (≈ 68 µM) | 2.8 µM | > 64 µg/mL | 2 µg/mL (≈ 4.25 µM) | 1 µg/mL (≈ 2.13 µM) |
| CCCC(=O)NC[C@H]1CN(c2ccc3c(c2)CCCc2c(CCC)n[nH]c2-3)C(=O)O1 | 2 µg/mL (≈ 4.87 µM) | 1 µg/mL (≈ 2.44 µM) | 8 µg/mL (≈ 19.5 µM) | 5.6 µM | > 64 µg/mL | 2 µg/mL (≈ 4.87 µM) | 1 µg/mL (≈ 2.44 µM) |
| CC(=O)NC[C@H]1CN(c2ccc3c(c2)CCCc2c(-c4nc5ccccc5s4)n[nH]c2-3)C(=O)O1 | > 64 µg/mL | > 64 µg/mL | > 64 µg/mL | – | > 64 µg/mL | > 64 µg/mL | > 64 µg/mL |
| CC(=O)NC[C@H]1CN(c2ccc3c(c2)CCCc2cn[nH]c2-3)C(=O)O1 | 0.25 µg/mL (≈ 0.734 µM) | 0.125 µg/mL (≈ 0.367 µM) | 2 µg/mL (≈ 5.88 µM) | – | 2 µg/mL (≈ 5.88 µM) | 0.5 µg/mL (≈ 1.47 µM) | 0.25 µg/mL (≈ 0.734 µM) |
| CC(=O)NC[C@H]1CN(c2cc(F)c3c(c2)CCCc2cn[nH]c2-3)C(=O)O1 | 2 µg/mL (≈ 5.58 µM) | 1 µg/mL (≈ 2.79 µM) | 8 µg/mL (≈ 22.3 µM) | 2.1 µM | 8 µg/mL (≈ 22.3 µM) | 2 µg/mL (≈ 5.58 µM) | 1 µg/mL (≈ 2.79 µM) |
| CC(=O)NC[C@H]1CN(c2ccc3c(c2)CCCc2c(-c4ccoc4)n[nH]c2-3)C(=O)O1 | 0.25 µg/mL (≈ 0.615 µM) | 0.125 µg/mL (≈ 0.308 µM) | 1 µg/mL (≈ 2.46 µM) | 0.7 µM | 4 µg/mL (≈ 9.84 µM) | 0.5 µg/mL (≈ 1.23 µM) | 0.25 µg/mL (≈ 0.615 µM) |
| O=C(NC[C@H]1CN(c2ccc3c(c2)CCCc2c(-c4ccno4)n[nH]c2-3)C(=O)O1)C(F)F | 0.5 µg/mL (≈ 1.13 µM) | 0.125 µg/mL (≈ 0.282 µM) | 1 µg/mL (≈ 2.26 µM) | 0.21 µM | 4 µg/mL (≈ 9.02 µM) | 0.5 µg/mL (≈ 1.13 µM) | 0.25 µg/mL (≈ 0.564 µM) |
| CC(=O)NC[C@H]1CN(c2ccc3c(c2)CCCCC3=O)C(=O)O1 | 2 µg/mL (≈ 6.32 µM) | 0.5 µg/mL (≈ 1.58 µM) | – | – | – | 1 µg/mL (≈ 3.16 µM) | 0.5 µg/mL (≈ 1.58 µM) |
| CC(=O)NC[C@H]1CN(c2cc(F)c3c(c2)CCCc2c(-c4ccco4)n[nH]c2-3)C(=O)O1 | 2 µg/mL (≈ 4.71 µM) | 1 µg/mL (≈ 2.36 µM) | 8 µg/mL (≈ 18.8 µM) | 5.7 µM | 64 µg/mL (≈ 151 µM) | 2 µg/mL (≈ 4.71 µM) | 1 µg/mL (≈ 2.36 µM) |
| CC(=O)NC[C@H]1CN(c2ccc(N3CCOCC3)c(F)c2)C(=O)O1 [LINEZOLID] | – | 2 µg/mL (≈ 5.93 µM) | – | – | – | – | – |
| CC(=O)NC[C@H]1CN(c2ccc3c(c2)CCCc2c(C(C)C)n[nH]c2-3)C(=O)O1 | 2 µg/mL (≈ 5.23 µM) | 1 µg/mL (≈ 2.61 µM) | 8 µg/mL (≈ 20.9 µM) | 4.3 µM | 16 µg/mL (≈ 41.8 µM) | 2 µg/mL (≈ 5.23 µM) | 0.5 µg/mL (≈ 1.31 µM) |
| CC(=O)NC[C@H]1CN(c2ccc3c(c2)CCCc2c(-c4cccnc4)n[nH]c2-3)C(=O)O1 | 0.5 µg/mL (≈ 1.2 µM) | 0.25 µg/mL (≈ 0.599 µM) | 2 µg/mL (≈ 4.79 µM) | 1 µM | 4 µg/mL (≈ 9.58 µM) | 1 µg/mL (≈ 2.4 µM) | 0.125 µg/mL (≈ 0.299 µM) |
| O=C(NC[C@H]1CN(c2ccc3c(c2)CCCc2c(-c4cc5ccccc5o4)n[nH]c2-3)C(=O)O1)c1cc2ccccc2o1 | 32 µg/mL (≈ 57.3 µM) | 4 µg/mL (≈ 7.16 µM) | > 64 µg/mL | > 25 µM | > 64 µg/mL | 32 µg/mL (≈ 57.3 µM) | 8 µg/mL (≈ 14.3 µM) |
| CC(=O)NC[C@H]1CN(c2ccc3c(c2)CCCc2c(-c4ccncc4)n[nH]c2-3)C(=O)O1 | 1 µg/mL (≈ 2.4 µM) | 0.25 µg/mL (≈ 0.599 µM) | 2 µg/mL (≈ 4.79 µM) | 1 µM | 4 µg/mL (≈ 9.58 µM) | 2 µg/mL (≈ 4.79 µM) | 0.25 µg/mL (≈ 0.599 µM) |
| CC(=O)NC[C@H]1CN(c2cc(F)c3c(c2)CCCc2c(-c4cc(C)n(C)n4)n[nH]c2-3)C(=O)O1 | 2 µg/mL (≈ 4.42 µM) | 1 µg/mL (≈ 2.21 µM) | 32 µg/mL (≈ 70.7 µM) | 4.2 µM | > 64 µg/mL | 4 µg/mL (≈ 8.84 µM) | 1 µg/mL (≈ 2.21 µM) |
| CC(=O)NC[C@H]1CN(c2ccc3c(c2)CCCc2c(-c4ccc(F)cc4)n[nH]c2-3)C(=O)O1 | 0.5 µg/mL (≈ 1.15 µM) | 1 µg/mL (≈ 2.3 µM) | 1 µg/mL (≈ 2.3 µM) | 1.5 µM | 8 µg/mL (≈ 18.4 µM) | 0.5 µg/mL (≈ 1.15 µM) | 0.25 µg/mL (≈ 0.575 µM) |
| CC(=O)NC[C@H]1CN(c2ccc3c(c2)CCCc2c(-c4cc(C)on4)n[nH]c2-3)C(=O)O1 | 0.5 µg/mL (≈ 1.19 µM) | 0.25 µg/mL (≈ 0.593 µM) | 2 µg/mL (≈ 4.75 µM) | 0.9 µM | 4 µg/mL (≈ 9.49 µM) | 0.5 µg/mL (≈ 1.19 µM) | 0.25 µg/mL (≈ 0.593 µM) |
| Cc1cc(C(=O)NC[C@H]2CN(c3ccc4c(c3)CCCc3c(-c5cc(C)on5)n[nH]c3-4)C(=O)O2)no1 | > 64 µg/mL | 2 µg/mL (≈ 4.09 µM) | > 64 µg/mL | – | > 64 µg/mL | > 64 µg/mL | 1 µg/mL (≈ 2.05 µM) |
| CC(=O)NC[C@H]1CN(c2ccc3c(c2)CCCc2c(C)n[nH]c2-3)C(=O)O1 | 1 µg/mL (≈ 2.82 µM) | 0.5 µg/mL (≈ 1.41 µM) | 4 µg/mL (≈ 11.3 µM) | 1.2 µM | 4 µg/mL (≈ 11.3 µM) | 1 µg/mL (≈ 2.82 µM) | 0.5 µg/mL (≈ 1.41 µM) |
| CC(=O)NC[C@H]1CN(c2ccc3c(c2)CCCc2c(-c4nnc(-c5ccccc5)o4)n[nH]c2-3)C(=O)O1 | > 64 µg/mL | 0.25 µg/mL (≈ 0.516 µM) | > 64 µg/mL | – | 16 µg/mL (≈ 33 µM) | > 64 µg/mL | 0.25 µg/mL (≈ 0.516 µM) |
